Measured values taken from patent US8513423B2 (Janssen Pharmaceutica, NV, priority 2010, dated 2013).
Substitutions are numbered along the chain they refer to. Read-outs that look alike come from different tables or passages of the source.

Columns and labels:
mutant MGL = molecular target: T1, mutant MGL (Homo sapiens, UniProt Q99685, L169S/L176S); experiment: MGL ThermoFluor assay - mutant; type: binding
T1 construct: purified mutant MGL (mut-MGLL 11-313 L179S L186S)
T1 sequence (Q99685 1-303 L169S/L176S): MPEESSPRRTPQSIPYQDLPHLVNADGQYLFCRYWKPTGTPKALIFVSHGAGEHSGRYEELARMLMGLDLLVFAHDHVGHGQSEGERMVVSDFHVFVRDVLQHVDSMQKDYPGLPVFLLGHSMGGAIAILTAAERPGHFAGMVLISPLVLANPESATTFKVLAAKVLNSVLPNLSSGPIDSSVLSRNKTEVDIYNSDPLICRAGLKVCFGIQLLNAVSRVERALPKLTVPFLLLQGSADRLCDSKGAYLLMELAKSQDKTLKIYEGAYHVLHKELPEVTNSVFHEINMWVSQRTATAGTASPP
Description: The ThermoFluor (TF) assay is a 384-well plate-based binding assay that measures thermal stability of proteins^1,2. The experiments were carried out using instruments available from Johnson & Johnson Pharmaceutical Research & Development, LLC. TF dye used in all experiments was 1,8-ANS (Invitrogen: A-47). Final TF assay conditions used for MGL studies were 0.07 mg/ml of mutant MGL, 100 μM ANS, 200 mM NaCl, 0.001% Tween-20 in 50 mM PIPES (pH=7.0).
Screening compound plates contained 100% DMSO compound solutions at a single concentration. For follow-up concentration-response studies, compounds were arranged in a pre-dispensed plate (Greiner Bio-one: 781280), wherein compounds were serially diluted in 100% DMSO across 11 columns within a series. Columns 12 and 24 were used as DMSO reference and contained no compound. For both single and multiple compound concentration-repsonse experiments, the compound aliquots (46 nL) were robotically predispensed directly into 384-well black assay plates (Abgene: TF-0384/k) using the Hummingbird liquid handler. Following compound dispension, protein and dye solutions were added to achieve the final assay volume of 3 μL. The assay solutions were overlayed with 1 μl of silicone oil (Fluka, type DC 200: 85411) to prevent evaporation.
Bar-coded assay plates were robotically loaded onto a thermostatically controlled PCR-type thermal block and then heated from 40 to 90° C. degrees at a ramp-rate of 1° C./min for all experiments. Fluorescence was measured by continuous illumination with UV light (Hamamatsu LC6), supplied via fiber optics and filtered through a band-pass filter (380-400 nm; >6 OD cutoff). Fluorescence emission of the entire 384-well plate was detected by measuring light intensity using a CCD camera (Sensys, Roper Scientific) filtered to detect 500±25 nm, resulting in simultaneous and independent readings of all 384 wells. A single image with 20-sec exposure time was collected at each temperature, and the sum of the pixel intensity in a given area of the assay plate was recorded vs temperature and fit to standard equations to yield the Tm^1. • 1. Pantoliano, M. W., Petrella, E. C., Kwasnoski, J. D., Lobanov, V. S., Myslik, J., Graf, E., Carver, T., Asel, E., Springer, B. A., Lane, P., and Salemme, F. R. (2001) J Biomol Screen 6, 429-40. • 2. Matulis, D., Kranz, J. K., Salemme, F. R., and Todd, M. J. (2005) Biochemistry 44, 5258-66.
The Kd values for compounds of Formula (I) were determined from a fit of the equation to the concentration-response plot of the fractional activity as a function of Tm. For some experiments, quantitative NMR spectroscopy (qNMR) was used to measure concentration of the initial 100% DMSO compound solutions and, using the same fitting method, qKd values were determined

MGL = molecular target: T2, MGL (Rattus norvegicus, UniProt Q8R431); experiment: 2-AG accumulation assay in rat brain homogenate; type: biochemical; conditions: compound @1 μM; for 2-AG accumulation, percent of vehicle control at 1 µM: read-out: Rat Brain 2AG % VehCntrl (%) @1 μM
T2 construct: one g rat brain was homogenized; from tissue; host or cells: rat brain homogenate
T2 sequence (Q8R431 1-303): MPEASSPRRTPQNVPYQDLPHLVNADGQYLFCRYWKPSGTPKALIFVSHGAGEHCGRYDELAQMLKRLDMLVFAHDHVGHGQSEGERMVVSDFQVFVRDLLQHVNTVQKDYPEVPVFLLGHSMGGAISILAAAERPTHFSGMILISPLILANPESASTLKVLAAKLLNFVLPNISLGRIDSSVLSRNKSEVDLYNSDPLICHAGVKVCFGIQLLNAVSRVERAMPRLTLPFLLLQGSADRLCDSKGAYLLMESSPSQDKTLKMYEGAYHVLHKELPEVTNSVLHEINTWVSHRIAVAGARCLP
Description: After a 15-min incubation time at 37° C., CaCl2 (final concentration=10 mM) was added and then incubated for 15 min at 37° C. in a total volume of 5 mL. The reactions were stopped with 6 mL organic solvent extraction solution of 2:1 chloroform/methanol. Accumulated 2-AG in the organic phase was measured by a HPLC/MS method, according to the following equation: percent vehicle=(2-AG accumulation in the presence of compound/2-AG accumulation in vehicle)×100.

[1] = molecular target: T3, purified wild type MGL (wt-MGLL 6H-11-313) (Homo sapiens, UniProt Q99685); experiment: MGL enzyme activity assay (4MU-B cleavage), wild type MGL; type: biochemical; conditions: 10 μM 4MU-B, 5 nM enzyme, 37° C., read-out: MGL wild type inh IC50
T3 construct: purified wild type MGL (wt-MGLL 6H-11-313)
T3 sequence (Q99685 1-303): T1 sequence (Q99685 1-303 L169S/L176S) with S169L, S176L
Description: All rate-based assays were performed in black 384-well polypropylene PCR microplates (Abgene) in a total volume of 30 μL. Substrate 4-methylumbelliferyl butyrate (4MU-B; Sigma) and either purified mutant MGL (mut-MGLL 11-313 L179S L186S) or purified wild type MGL (wt-MGLL 6H-11-313) were diluted separately into 20 mM PIPES buffer (pH=7.0), containing 150 mM NaCl and 0.001% Tween 20. Compounds of Formula (I) were pre-dispensed (50 nL) into the assay plate using a Cartesian Hummingbird prior to adding 4MU-B (25 μL of 1.2× solution to a final concentration of 10 μM) followed by enzyme (5 μL of a 6× solution to a final concentration of 5 nM) to initiate the reaction. Final compound concentrations ranged from 17 to 0.0003 μM. The fluorescence change due to 4MU-B cleavage was monitored with excitation and emission wavelengths of 335 and 440 nm, respectively, and a bandwidth of 10 nm (Safire^2, Tecan) at 37° C. for 5 min.
The IC50 values for compounds of Formula (I) were determined using Excel from a fit of the equation to the concentration-response plot of the fractional activity as a function of inhibitor concentration.

[2] = 0.07 mg/ml mutant MGL, pH=7.0, read-out: MGL mutant ThermoFluor Kd
[3] = compound concentration measured by qNMR, read-out: MGL mutant ThermoFluor qKd (using qNMR conc.)

Row | Molecule | Kd (mutant MGL; [2]) [nM] | Rat Brain 2AG % VehCntrl (%) @1 μM (MGL; percent vehicle) [%] | IC50 [1] [nM] | 2-AG accumulation, percent of vehicle control at 1 µM (MGL) [%] | Kd (mutant MGL; [3]) [nM]
1 | 1-(1H-Pyrrol-2-ylcarbonyl)-4-[1-({4-3-(trifluoromethyl)benzyl]phenyl}carbonyl)azetidin-3-yl]piperidine [Cpd 25] | 27.5 | 540 | 12 | – | –
2 | O=C(c1ccc(-c2ccccc2)cc1)N1CC(C2CCN(C(=O)c3ccns3)CC2)C1 [Cpd 3, 4-[1-(Biphenyl-4-ylcarbonyl)azetidin-3-yl]-1-(isothiazol-5-ylcarbonyl)piperidine] | 55.7 | – | 33.9 | 135 | –
3 | O=C(c1cscn1)N1CCC(C2CN(C(=O)c3sc4cc(F)ccc4c3Cl)C2)CC1 [Cpd 7, 4-{1-[(3-Chloro-6-fluoro-1-benzothiophen-2-yl)carbonyl]azetidin-3-yl}-1-(1,3-thiazol-4-ylcarbonyl)piperidine] | 25 | – | 56.5 | 185 | –
4 | Cc1nc2cc(C(=O)N3CC(C4CCN(C(=O)c5nccs5)CC4)C3)ccc2n1CC(F)(F)F [Cpd 90, 2-Methyl-5-({3-[1-(1,3-thiazol-2-ylcarbonyl)piperidin-4-yl]azetidin-l-yl}carbonyl)-1-(2,2,2-trifluoroethyl)-1H-benzimidazole] | – | – | 173 | – | 23.7
5 | Cc1nc2cc(C(=O)N3CC(C4CCN(C(=O)c5nccs5)CC4)C3)ccc2n1CCC(F)(F)F [Cpd 91, 2-Methyl-5-({3-[1-(1,3-thiazol-2-ylcarbonyl)piperidin-4-yl]azetidin-l-yl}carbonyl)-1-(3,3,3-trifluoropropyl)-1H-benzimidazole] | – | – | 237 | – | 32.5
6 | Cc1nc2cc(C(=O)N3CC(C4CCN(C(=O)c5nccs5)CC4)C3)ccc2n1C1CCC(F)(F)CC1 [Cpd 92, 1-(4,4-Difluorocyclohexyl)-2-methyl-5-({3-[1-(1,3-thiazol-2-ylcarbonyl)piperidin-4-yl]azetidin-1-yl}carbonyl)-1H-benzimidazole] | – | – | 163 | – | 3.4
7 | O=C(c1ccc2c(ccn2-c2ccc(Cl)cn2)c1)N1CC(C2CCN(C(=O)c3nccs3)CC2)C1 [Cpd 93, 1-(5-Chloropyridin-2-yl)-5-({3-[1-(1,3-thiazol-2-ylcarbonyl)piperidin-4-yl]azetidin-1-yl}carbonyl)-1H-indole] | 5.5 | – | < 5 | – | –
8 | O=C(c1cc2ccc(C(F)(F)F)cc2s1)N1CC(C2(O)CCN(C(=O)c3nccs3)CC2)C1 [Cpd 94, 1-(1,3-Thiazol-2-ylcarbonyl)-4-(1-{[6-(trifluoromethyl)-1-benzothiophen-2-yl]carbonyl}azetidin-3-yl)piperidin-4-ol] | – | – | 10 | – | 24.9
9 | Cc1cc(-n2ccc3cc(C(=O)N4CC(C5CCN(C(=O)c6nccs6)CC5)C4)ccc32)ccn1 [Cpd 95, 1-(2-Methylpyridin-4-yl)-5-({3-[1-(1,3-thiazol-2-ylcarbonyl)piperidin-4-yl]azetidin-1-yl}carbonyl)-1H-indole] | – | – | 14 | – | 38.6
10 | O=C(c1ccc2c(c1)[nH]c(=O)n2-c1ccccc1)N1CC(C2CCN(C(=O)c3nccs3)CC2)C1 [Cpd 96, 1-Phenyl-5-({3-[1-(1,3-thiazol-2-ylcarbonyl)piperidin-4-yl]azetidin-1-yl}carbonyl)-1,3-dihydro-2H-benzimidazol-2-one] | – | – | 78.1 | – | 24.7
11 | O=C(c1ccc2c(c1)[nH]c(=O)n2-c1ccc(F)cc1)N1CC(C2CCN(C(=O)c3nccs3)CC2)C1 [Cpd 97, 1-(4-Fluorophenyl)-5-({3-[1-(1,3-thiazol-2-ylcarbonyl)piperidin-4-yl]azetidin-1-yl}carbonyl)-1,3-dihydro-2H-benzimidazol-2-one] | – | – | 34 | – | 22.1
12 | O=C(c1ccc2c(c1)[nH]c(=O)n2-c1ccc(F)c(F)c1)N1CC(C2CCN(C(=O)c3nccs3)CC2)C1 [Cpd 98, 1-(3,4-Difluorophenyl)-5-({3-[1-(1,3-thiazol-2-ylcarbonyl)piperidin-4-yl]azetidin-1-yl}carbonyl)-1,3-dihydro-2H-benzimidazol-2-one] | – | – | 16.6 | – | 43.6
13 | O=C(c1ccc2c(c1)[nH]c(=O)n2-c1ccc(C(F)(F)F)cc1)N1CC(C2CCN(C(=O)c3nccs3)CC2)C1 [Cpd 99, 5-({3-[1-(1,3-Thiazol-2-ylcarbonyl)piperidin-4-yl]azetidin-1-yl}carbonyl)-1-[4-(trifluoromethyl)phenyl]-1,3-dihydro-2H-benzimidazol-2-one] | – | – | 17.3 | – | 16.7
14 | O=C(c1ccc2c(c1)[nH]c(=O)n2CCC(F)(F)F)N1CC(C2CCN(C(=O)c3nccs3)CC2)C1 [Cpd 100, 5-({3-[1-(1,3-Thiazol-2-ylcarbonyl)piperidin-4-yl]azetidin-1-yl}carbonyl)-1-(3,3,3-trifluoropropyl)-1,3-dihydro-2H-benzimidazol-2-one] | – | – | 101 | – | 88.8
15 | O=C(c1ccc2c(c1)[nH]c(=O)n2C1CCC(F)(F)CC1)N1CC(C2CCN(C(=O)c3nccs3)CC2)C1 [Cpd 101, 1-(4,4-Difluorocyclohexyl)-5-({3-[1-(1,3-thiazol-2-ylcarbonyl)piperidin-4-yl]azetidin-1-yl}carbonyl)-1,3-dihydro-2H-benzimidazol-2-one] | – | – | 104 | – | 3.9
